Reference: patent US20200085050A1, “Acyclic Picolinamides as a Seed Treatment” (priority 2017, published 2020)
Where two headings read alike, the source gives them in different places.

What was measured:
[1] = tested on: Blumeria graminis f. sp. tritici; assay: Seed treatment, wheat powdery mildew (ERYSGT) foliar disease control; format: in vivo
Rhizoctonia solani = assay: Seed treatment, rice sheath blight (RHIZSO) foliar disease control; format: in vivo
Phakopsora pachyrhizi = assay: Seed treatment, soybean rust (PHAKPA) foliar disease control; format: in vivo; settings: at any rate, data not shown
[2] = tested on: Colletotrichum lagenarium; assay: Seed treatment, cucumber anthracnose (COLLLA) foliar disease control; format: in vivo
Puccinia triticina = assay: Seed treatment, wheat brown rust (PUCCRT) foliar disease control; format: in vivo
Parastagonospora nodorum = assay: Seed treatment, wheat glume blotch (LEPTNO) foliar disease control; format: in vivo
Zymoseptoria tritici = assay: Seed treatment, wheat leaf blotch (SEPTTR) foliar disease control; format: in vivo
Rhynchosporium secalis = assay: Seed treatment, barley scald (RHYNSE) foliar disease control; format: in vivo
Erysiphe cichoracearum = assay: Seed treatment, cucumber powdery mildew (ERYSCI) foliar disease control; format: in vivo
[3] = tested on: Pseudoperonospora cubensis; assay: Seed treatment, cucumber downy mildew (PSEUCU) foliar disease control; format: in vivo
Cochliobolus sativus = assay: Seed treatment, spot blotch of barley (COCHSA) foliar disease control; format: in vivo
[4] = in vivo
Description: The treated seeds were planted in pots containing soil-less Metro mix within 2 weeks after treatment, and resultant seedling plants were inoculated with respective pathogens as described below. Four pots of the seedlings were inoculated for each treatment rate.

Pyricularia oryzae = format: in vivo; settings: for PYRIOR rating of foliar disease control: rice
[5] = tested on: Blumeria graminis f. sp. hordei; assay: Seed treatment, barley powdery mildew (ERYSGH) foliar disease control; format: in vivo
[6] = seed treatment 3.7 g ai/100 kg seeds
[7] = seed treatment 11 g ai/100 kg seeds
[8] = seed treatment 33.3 g ai/100 kg seeds
[9] = seed treatment 100 g ai/100 kg seeds
[10] = seed treatment 300 g ai/100 kg seeds
[11] = seed treatment, summary of Table 2
[12] = seed treatment, summary of Table 5
[13] = seed treatment, summary of Table 4
[14] = seed treatment, summary of Table 3

With `COc1ccnc(C(=O)N[C@@H](C)C(=O)O[C@@H](C)C(c2ccc(F)cc2)c2ccc(F)cc2)c1OC(C)=O` [I, (S)-1,1-bis(4-fluorophenyl)propan-2-yl (3-acetoxy-4-methoxypicolinoyl)-L-alaninate] the “ERYSGT rating of foliar disease control” value [1, 6] was “D (0-25)”, the “ERYSGT rating of foliar disease control” value [1, 7] was “D (0-25)” and the “ERYSGT rating of foliar disease control” value [1, 8] was “B (51-75)”. For the same molecule, the “ERYSGT rating of foliar disease control” value [1, 9] was “A (76-100)”, the “ERYSGT rating of foliar disease control” value [1, 10] was “A (76-100)” and the “activity against powdery mildew (ERYSGT), in words” value [1, 11] was “moderate activity”. The “RHIZSO rating of foliar disease control” value (Rhizoctonia solani; [6]) was “D (0-25)”, the “RHIZSO rating of foliar disease control” value (Rhizoctonia solani; [7]) was “D (0-25)” and the “RHIZSO rating of foliar disease control” value (Rhizoctonia solani; [8]) was “D (0-25)”. For the same molecule, the “RHIZSO rating of foliar disease control” value (Rhizoctonia solani; [9]) was “D (0-25)”, the “RHIZSO rating of foliar disease control” value (Rhizoctonia solani; [10]) was “D (0-25)” and the “activity on rice sheath blight (RHIZSO), in words” value (Rhizoctonia solani; [12]) was “little activity”. The “activity on Asian soybean rust (PHAKPA), in words” value (Phakopsora pachyrhizi) was “no activity”, the “COLLLA rating of foliar disease control” value [2, 6] was “D (0-25)” and the “COLLLA rating of foliar disease control” value [2, 7] was “B (51-75)”. For the same molecule, the “COLLLA rating of foliar disease control” value [2, 8] was “B (51-75)”, the “COLLLA rating of foliar disease control” value [2, 9] was “A (76-100)” and the “COLLLA rating of foliar disease control” value [2, 10] was “A (76-100)”. The “activity on anthracnose (COLLLA), in words” value [2, 13] was “strong activity”, the “PUCCRT rating of foliar disease control” value (Puccinia triticina; [6]) was “D (0-25)” and the “PUCCRT rating of foliar disease control” value (Puccinia triticina; [7]) was “D (0-25)”. For the same molecule, the “PUCCRT rating of foliar disease control” value (Puccinia triticina; [8]) was “D (0-25)”, the “PUCCRT rating of foliar disease control” value (Puccinia triticina; [9]) was “C (26-50)” and the “PUCCRT rating of foliar disease control” value (Puccinia triticina; [10]) was “A (76-100)”. For the same molecule, the “activity against brown rust (PUCCRT), in words” value (Puccinia triticina; [11]) was “moderate activity”, the “LEPTNO rating of foliar disease control” value (Parastagonospora nodorum; [6]) was “A (76-100)” and the “LEPTNO rating of foliar disease control” value (Parastagonospora nodorum; [7]) was “A (76-100)”. The “LEPTNO rating of foliar disease control” value (Parastagonospora nodorum; [8]) was “A (76-100)”, the “LEPTNO rating of foliar disease control” value (Parastagonospora nodorum; [9]) was “A (76-100)” and the “LEPTNO rating of foliar disease control” value (Parastagonospora nodorum; [10]) was “A (76-100)”. For the same molecule, the “protection against glume blotch (LEPTNO), in words” value (Parastagonospora nodorum; [11]) was “excellent protection”, the “SEPTTR rating of foliar disease control” value (Zymoseptoria tritici; [6]) was “A (76-100)” and the “SEPTTR rating of foliar disease control” value (Zymoseptoria tritici; [7]) was “A (76-100)”. The “SEPTTR rating of foliar disease control” value (Zymoseptoria tritici; [8]) was “A (76-100)”, the “SEPTTR rating of foliar disease control” value (Zymoseptoria tritici; [9]) was “A (76-100)” and the “SEPTTR rating of foliar disease control” value (Zymoseptoria tritici; [10]) was “A (76-100)”. The “protection against leaf blotch (SEPTTR), in words” value (Zymoseptoria tritici; [11]) was “excellent protection”, the “RHYNSE rating of foliar disease control” value (Rhynchosporium secalis; [6]) was “D (0-25)” and the “RHYNSE rating of foliar disease control” value (Rhynchosporium secalis; [7]) was “D (0-25)”. The “RHYNSE rating of foliar disease control” value (Rhynchosporium secalis; [8]) was “C (26-50)”, the “RHYNSE rating of foliar disease control” value (Rhynchosporium secalis; [9]) was “B (51-75)” and the “RHYNSE rating of foliar disease control” value (Rhynchosporium secalis; [10]) was “A (76-100)”. For the same molecule, the “activity on barley scald (RHYNSE), in words” value (Rhynchosporium secalis; [14]) was “moderate activity”, the “ERYSCI rating of foliar disease control” value (Erysiphe cichoracearum; [6]) was “D (0-25)” and the “ERYSCI rating of foliar disease control” value (Erysiphe cichoracearum; [7]) was “D (0-25)”. The “ERYSCI rating of foliar disease control” value (Erysiphe cichoracearum; [8]) was “D (0-25)”, the “ERYSCI rating of foliar disease control” value (Erysiphe cichoracearum; [9]) was “B (51-75)” and the “ERYSCI rating of foliar disease control” value (Erysiphe cichoracearum; [10]) was “A (76-100)”. For the same molecule, the “activity on powdery mildew (ERYSCI), in words” value (Erysiphe cichoracearum; [13]) was “moderate activity”, the “PSEUCU rating of foliar disease control” value [3, 6] was “D (0-25)” and the “PSEUCU rating of foliar disease control” value [3, 7] was “D (0-25)”. For the same molecule, the “PSEUCU rating of foliar disease control” value [3, 8] was “D (0-25)”, the “PSEUCU rating of foliar disease control” value [3, 9] was “D (0-25)” and the “PSEUCU rating of foliar disease control” value [3, 10] was “D (0-25)”. For the same molecule, the “activity on downy mildew (PSEUCU), in words” value [3, 13] was “little activity”, the “COCHSA rating of foliar disease control” value (Cochliobolus sativus; [6]) was “D (0-25)” and the “COCHSA rating of foliar disease control” value (Cochliobolus sativus; [7]) was “D (0-25)”. The “COCHSA rating of foliar disease control” value (Cochliobolus sativus; [8]) was “D (0-25)”, the “COCHSA rating of foliar disease control” value (Cochliobolus sativus; [9]) was “D (0-25)” and the “COCHSA rating of foliar disease control” value (Cochliobolus sativus; [10]) was “D (0-25)”. For the same molecule, the “activity on spot blotch (COCHSA), in words” value (Cochliobolus sativus; [14]) was “little activity”, the stunting or phytotoxicity [4] was “no evidence of stunting or phytotoxicity” and the “PYRIOR rating of foliar disease control” value (Pyricularia oryzae; [6]) was “B (51-75)”. The “PYRIOR rating of foliar disease control” value (Pyricularia oryzae; [7]) was “B (51-75)”, the “PYRIOR rating of foliar disease control” value (Pyricularia oryzae; [8]) was “A (76-100)” and the “PYRIOR rating of foliar disease control” value (Pyricularia oryzae; [9]) was “A (76-100)”. For the same molecule, the “PYRIOR rating of foliar disease control” value (Pyricularia oryzae; [10]) was “A (76-100)”, the “activity on rice blast (PYRIOR), in words” value (Pyricularia oryzae; [12]) was “strong activity” and the “ERYSGH rating of foliar disease control” value [5, 6] was “D (0-25)”. The “ERYSGH rating of foliar disease control” value [5, 7] was “A (76-100)”, the “ERYSGH rating of foliar disease control” value [5, 8] was “A (76-100)” and the “ERYSGH rating of foliar disease control” value [5, 9] was “A (76-100)”. For the same molecule, the “ERYSGH rating of foliar disease control” value [5, 10] was “A (76-100)” and the “activity on powdery mildew (ERYSGH), in words” value [5, 14] was “excellent activity”.
